Measurements published in patent publication US20070299119A1, “Prophylactic or Therapeutic Agent for Severe Diabetic Retinopathy” (SANWA KAGAKU KENKYUSHO CO., LTD., priority 2004, published 2007).

Test system: severe retinopathy (tractional retinal detachment, IRMA) in SDT rats
Experiment: Histopathological examination and fluorescein fundus angiography of severe retinopathy in spontaneously diabetic Torii (SDT) rats
Type: in vivo, rat
Procedure: Diabetes mellitus occurs in spontaneously diabetic Torii (SDT) rats at about 20 weeks of age. Accordingly, blood glucose levels were confirmed at about 25 weeks of age, and rats showing an increase in blood glucose level (at least 300 mg/dl) were used in the experiment. The male SDT rats confirmed to develop diabetes mellitus were divided into two groups, that is, 1) untreatment control (n=14) group and 2) SNK-860 treatment (16 mg/kg/day, n=17)group. The compound was mixed with usual feed (CRF-1: Oriental Yeast Co., Ltd.) and then administered into the rats. The CRF-1 solid feed not containing the compound was freely ingested by the control group, while CRF-1 solid feed containing 0.01333% SNK-860 was freely ingested by the SNK-860 treatment group. At 36 weeks of age and at 52 to 58 weeks of age, the rats were anesthetized and then the eyeballs were excised and used in histopathological examination. The SNK-860-containing feed was prepared in the following manner. SNK-860 was weighed and mixed well with a small amount of CRF-1 powdered feed. Thereafter, additional powdered feed was added thereto, stirred well and solidified. The dose established this time was 16 mg/kg. The concentration of this agent in the feed, calculated on the basis of the established dose, the weight of the rat and the amount of the feed ingested for 1 day, was 0.01333%. The histopathological examination was carried out in the following manner. The rat was anesthetized with ether and by intraperitoneal administration of Nembutal, and then the eyeballs were excised. The excised eyeballs were placed in a mixed solution (1:1:2) consisting of 4% glutaraldehyde, 10% neutral formalin and a phosphate buffer (pH 7.2, 0.3 mol/l). After 60 minutes, the eyeball was cut into halves under a stereoscopic microscope and then stored overnight at 4° C. The next morning, the eyeballs were embedded in a usual manner into paraffin to prepare a transverse section containing a bundle of optic nerves. The section was stained with hematoxylin-eosin. Fluorescein fundus angiography was carried out by opening the chest under the same anesthesia, injecting fluorescein dextran (Sigma, 50 mg/1 ml PBS) into the heart, and after 5 minutes, excising the eyeballs. That is, the retina was separated from the excised eyeball, spread on a slide glass to prepare a flat mounted specimen of the retina, then observed with a stereoscopic fluorescent microscope and photographed to evaluate retinopathy. When retinal fold (retinal detachment) accompanied by thickening of the retina around optic nerve head was recognized in the pathological examination, or when fluorescence dye leakage accompanied by retinal vascular tortuosity and/or caliber variation around optic nerve head was recognized in the fluorescein fundus photography, it was assumed that severe retinopathy occurred in the SDT rat. […] That is, it was attempted to clarify the inhibitory effect on the onset by setting a longer duration of the disease.

[1] = male SDT rats, 16 mg/kg/day in feed from about 25 weeks of age, at 36 weeks of age, pathological examination

NC(=O)[C@@H]1C[C@]2(NC(=O)NC2=O)c2cc(F)ccc2O1 [SNK-860, (2S,4S)-6-fluoro-2′,5′-dioxospiro[chroman-4,4′-imidazolidine]-2-carboxamide]
inhibitory effect on the onset of tractional retinal detachment (in words) (SDT rats, long-term administration): strongly inhibited
onset of tractional retinal detachment (affected eyes/examined eyes) [1]: 0/3
onset of tractional retinal detachment (percent of eyes) [1]: 0%
degree of onset of tractional retinal detachment or fluorescence dye leakage accompanied by retinal vascular tortuosity and/or caliber variation around optic nerve head (affected eyes/examined eyes) (male SDT rats, 16 mg/kg/day in feed from about 25 weeks of age, at 52-58 weeks of age, untreated 7/11 eyes): 3/14
degree of onset of tractional retinal detachment or fluorescence dye leakage accompanied by retinal vascular tortuosity and/or caliber variation around optic nerve head (percent of eyes) (male SDT rats, 16 mg/kg/day in feed from about 25 weeks of age, at 52-58 weeks of age, untreated 64%): 21%
